Test results: US9757317B2, “Cosmetic compositions and methods for inhibiting melanin synthesis” (The Procter & Gamble Company, priority 2014, dated 2017)
Where a name gives a salt, the structure may show the parent alone.

System: B16-F1 mouse melanoma cells
Test: Melanin Synthesis Assay
Format: cell-based
Description: A B16-F1 mouse melanoma cell line may be employed as an assay to measure melanin synthesis. The B16-F1 cells may be obtained from American Tissue Culture Collection, Virginia, USA. The cell culture medium that may be used in the assay may comprise 500 mL of Dulbecco's Modified Eagle's Medium (DMEM), 50 mL Fetal Bovine Serum (FBS), and 5 mL of penicillin-streptomycin liquid. B16-F1 cells that are cultured in this medium and grown to greater than 90% confluency synthesize melanin. While not intending to be bound by any theory, it is hypothesized that melanin synthesis is stimulated by the culture medium and/or stress induced by growth to a high confluency. The DMEM and FBS can be obtained from American Tissue Culture Collection and the penicillin-streptomycin liquid can be obtained from Invitrogen, Inc., California, USA. Equipment used in the assay include a CO2 incubator, such as a Form a Series Model 3110 by Therma Scientific, Massachusetts, USA; a hemocytometer, such as a Bright Line model by Hauser Scientific, Pennsylvania, USA; and a UV-Visible Spectrum Plate Reader, such as a SpectraMax250 from Molecular Devices, California, USA. The assay steps may include:
Day 0—Cell Growth: Warm the cell culture medium to 37° C. and place 29 mL into a T-150 flask. Add approximately 1×10^6 of B16-F1 passage 1 mouse cells to the T-150 flask and incubate for 3 days at 37° C., 5% CO2, 90% relative humidity, until ˜80% confluency;
Day 3—Initiate a 96 Well Plate: At day 3, trypsinize the cells from the T-150 flask and determine the concentration of cells using a hemocytometer. Initiate a 96 well plate with 2,500 cells per well in 100 microliters of cell culture medium. Incubate the plate at 37° C., 5% CO2, 90% relative humidity for about 2 days until at least 20% to 40% confluency;
Day 5—Decant the cell culture medium from the plate and replace with fresh culture medium (100 uL per well). Add 1 microliter of [test compound] diluted in a [water or DSMO] solvent. Multiple dilution ratios may be tested in order to generate a dose response curve, wherein preferably three wells are treated with each dilution ratio. Controls comprise wells having the cell culture medium, B16-F1 cells, and the solvent (control #1); wells comprising the cell culture medium and the solvent (control #2); and optionally wells comprising the cell culture medium, solvent and [test compound] when necessary to control for the [test compound] background color (control #3);
Day 7—Measure Melanin Production: Cells should have a confluency greater than ˜90%. […] Add 100 microliters of a 0.75% sodium hydroxide solution to each well. Read the 96 well plate using the UV-Vis Plate Reader at 410 nm to optically measure the amount of melanin produced between wells that are treated with [test compound] and control wells that are not treated with a test compound. Wells in which melanin is produced typically appear brownish in color. Wells in which little melanin is produced typically appear clear to light purple in color. Percentage of melanin synthesis inhibition is calculated by the following equation: […]
Where OD410 is the Optical Density at 410 nm as measured by the UV-Vis Spectrum Plate Reader.
When Control #3 is used, the formula for percentage melanin synthesis inhibition is: […]
Using generally the assay outlined above, melanin synthesis in treated B16-F1 cells was inhibited as compared to control cells as shown in Table 1.

[1] = test material (0.002 to 0.5%) combined with Bis/HD/Nia
[2] = test material (0.002 to 0.5%) combined with Bis/UP/Nia

For `CCCCCCCCCCCCCCCCCCOCC(O)CO` (stereo not shown) [Sample 8, batyl alcohol], the “Average Melanin % Inhibition” value (Table 2, 0.03% Bat, 0.003% Bis, 0.0005% HD, 0.0001% UP, 0.0005% Nia where included) was 7%.

In the case of `CCCCCCCCCCC(O)CCCC` (stereo not shown) [5-Pentadecanol], the “Average Melanin % Inhibition” value [1] is reported as 46%.

With `CCCCC(CC)COC(=O)CCCCCCCCC(=O)OCC(CC)CCCC` (stereo not shown) [Bis (2-ethylhexyl) Sebacate, Bis (2-ethylhexyl) sebacate] the “Average Melanin % Inhibition” value [1] was 79% and the “Average Melanin % Inhibition” value [2] was 88%.

`CCCCC(CC)COC(=O)CCCCC(=O)OCC(CC)CCCC` (stereo not shown) [Bis (2-ethylhexyl) Adipate, Bis (2-ethylhexyl) adipate] was tested, and the “Average Melanin % Inhibition” value [2] was 42%.

With `CCCCCCCCCCCCCCCC(=O)OCC` [Ethyl Palmitate, Ethyl palmitate] the “Average Melanin % Inhibition” value [1] was 82% and the “Average Melanin % Inhibition” value [2] was 84%.

`CCCCC(CC)COC(=O)/C=C\C(=O)OCC(CC)CCCC` (stereo not shown) [Bis (2-ethylhexyl) Maleate, Bis (2-ethylhexyl) maleate] was tested, and the “Average Melanin % Inhibition” value [1] was 32% and the “Average Melanin % Inhibition” value [2] was 45%.

In the case of `CCCCCCCCCCCCCCCCCCO` [Stearyl Alcohol, Stearyl alcohol], the “Average Melanin % Inhibition” value [1] is reported as 60% and the “Average Melanin % Inhibition” value [2] is reported as 73%.

In the case of `CC(C)=CCC[C@](C)(O)[C@@H]1CC=C(C)CC1` [Sample 1, bisabolol], the “Average Melanin % Inhibition” value (Table 1, B16-F1 cells, 0.1% Bis, 0.00056% HD, 0.00011% UP, 0.00056% Nia where included) is reported as 2.2%.

In the case of `CCCCCCCCCCCCCCCCCC(=O)OCC(O)CO` (racemic) [1-Stearoyl rac-Glycerol, 1-Stearoyl-rac-glycerol], the “Average Melanin % Inhibition” value (test material (0.002 to 0.5%) combined with Bis/HD/UP/Nia) is reported as 38%.
